{"source": "ChEMBL document CHEMBL2034891", "about": "“Discovery, design and synthesis of Y-shaped peroxisome proliferator-activated receptor δ agonists as potent anti-obesity agents in vivo” (Eur J Med Chem, 2012)", "key": {"Mus musculus [1]": {"test_system": "Mus musculus", "test": "Antiobesity activity in high-fat diet fed C57BL/6 mouse assessed as decrease in lipid accumulation on brown adipose tissue at 10 mg/kg, po QD hematoxylin and eosin staining-based histological analysis", "type": "functional, organism-based", "set-up": "dose 10 mg/kg"}, "Mus musculus [2]": {"test_system": "Mus musculus", "test": "Dose normalized AUC in ICR mouse at 1 mg/kg, iv", "type": "ADME, organism-based", "set-up": "dose 1 mg/kg, route intravenous", "conditions": "in vivo"}, "[3]": {"test": "Cmax in ICR mouse at 1 mg/kg, iv", "type": "ADME, organism-based", "set-up": "dose 1 mg/kg, route intravenous", "conditions": "in vivo"}, "Mus musculus [4]": {"test_system": "Mus musculus", "test": "Antiobesity activity in high-fat diet fed C57BL/6 mouse assessed as decrease in lipid accumulation on white adipose tissue at 10 mg/kg, po QD hematoxylin and eosin staining-based histological analysis", "type": "functional, organism-based", "set-up": "dose 10 mg/kg"}, "[5]": {"test": "Mean residence time in ICR mouse at 10 mg/kg, po", "type": "ADME, organism-based", "set-up": "dose 10 mg/kg, route oral", "conditions": "in vivo"}, "[6]": {"test": "Cmax in ICR mouse at 10 mg/kg, po", "type": "ADME, organism-based", "set-up": "dose 10 mg/kg, route oral", "conditions": "in vivo"}, "[7]": {"target": "T1, Peroxisome proliferator-activated receptor delta (Homo sapiens, UniProt Q03181)", "T1 sequence (Q03181 whole entry)": "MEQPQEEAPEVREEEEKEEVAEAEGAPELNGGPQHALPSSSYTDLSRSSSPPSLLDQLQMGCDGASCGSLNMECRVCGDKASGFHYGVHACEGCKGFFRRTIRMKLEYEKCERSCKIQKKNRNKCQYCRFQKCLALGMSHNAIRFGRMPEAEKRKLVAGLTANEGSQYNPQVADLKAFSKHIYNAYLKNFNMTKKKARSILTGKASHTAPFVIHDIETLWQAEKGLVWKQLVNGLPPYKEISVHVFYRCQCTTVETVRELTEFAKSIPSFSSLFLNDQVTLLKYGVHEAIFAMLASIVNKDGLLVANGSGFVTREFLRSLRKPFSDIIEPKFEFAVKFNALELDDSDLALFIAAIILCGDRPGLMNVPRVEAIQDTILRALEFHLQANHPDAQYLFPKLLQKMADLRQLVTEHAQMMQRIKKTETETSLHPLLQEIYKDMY", "test": "Transactivation activity at human PPARdelta expressed in african green monkey CV1 cells after 24 hrs by luciferase reporter gene assay", "type": "cell-based, CV-1"}, "[8]": {"target": "T2, Peroxisome proliferator-activated receptor alpha (Homo sapiens, UniProt Q07869)", "T2 sequence (Q07869 whole entry)": "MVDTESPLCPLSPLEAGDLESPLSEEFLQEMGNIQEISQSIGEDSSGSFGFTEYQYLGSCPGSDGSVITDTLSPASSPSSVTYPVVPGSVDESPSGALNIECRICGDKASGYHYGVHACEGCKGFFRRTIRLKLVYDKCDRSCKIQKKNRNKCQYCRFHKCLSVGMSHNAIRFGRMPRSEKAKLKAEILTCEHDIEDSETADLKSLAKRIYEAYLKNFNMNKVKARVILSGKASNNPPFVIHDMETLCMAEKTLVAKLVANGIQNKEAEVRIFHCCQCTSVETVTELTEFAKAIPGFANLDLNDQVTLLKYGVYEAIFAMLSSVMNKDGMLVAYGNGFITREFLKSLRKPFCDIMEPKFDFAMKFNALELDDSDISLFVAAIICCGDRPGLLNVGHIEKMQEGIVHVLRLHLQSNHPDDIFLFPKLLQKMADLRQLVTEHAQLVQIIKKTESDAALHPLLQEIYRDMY", "test": "Transactivation activity at human PPARalpha expressed in african green monkey CV1 cells after 24 hrs by luciferase reporter gene assay", "type": "cell-based, CV-1"}, "Mus musculus [9]": {"test_system": "Mus musculus", "test": "Antiobesity activity in high-fat diet fed C57BL/6 mouse assessed as increase in body weight at 10 mg/kg, po QD measured after 78 days (reference value: 102%)", "type": "functional"}, "[10]": {"test": "Tmax in ICR mouse at 10 mg/kg, po", "type": "ADME, organism-based", "set-up": "dose 10 mg/kg, route oral", "conditions": "in vivo"}, "[11]": {"test": "Terminal half life in ICR mouse at 10 mg/kg, po", "type": "ADME, organism-based", "set-up": "dose 10 mg/kg, route oral", "conditions": "in vivo, read-out: beta t1/2 (converted)"}, "Mus musculus [12]": {"test_system": "Mus musculus", "test": "Dose normalized AUC in ICR mouse at 10 mg/kg, po", "type": "ADME, organism-based", "set-up": "dose 10 mg/kg, route oral", "conditions": "in vivo"}, "[13]": {"test": "Clearance in ICR mouse at 10 mg/kg, po", "type": "ADME, organism-based", "set-up": "dose 10 mg/kg, route oral", "conditions": "in vivo"}, "Mus musculus [14]": {"test_system": "Mus musculus", "test": "AUMC in ICR mouse at 10 mg/kg, po", "type": "ADME, organism-based", "set-up": "dose 10 mg/kg, route oral", "conditions": "in vivo"}, "Mus musculus [15]": {"test_system": "Mus musculus", "test": "AUMC in ICR mouse at 1 mg/kg, iv", "type": "ADME, organism-based", "set-up": "dose 1 mg/kg, route intravenous", "conditions": "in vivo"}, "[16]": {"test": "Clearance in ICR mouse at 1 mg/kg, iv", "type": "ADME, organism-based", "set-up": "dose 1 mg/kg, route intravenous", "conditions": "in vivo"}, "[17]": {"test": "AUC in ICR mouse at 1 mg/kg, iv", "type": "ADME, organism-based", "set-up": "dose 1 mg/kg, route intravenous", "conditions": "plasma"}, "Homo sapiens": {"species_on_record": "Homo sapiens", "test": "Selectivity ratio of EC50 for human PPARalpha to EC50 for human PPARdelta"}, "[18]": {"target": "T3, Peroxisome proliferator-activated receptor gamma (Homo sapiens, UniProt P37231)", "T3 sequence (P37231 whole entry)": "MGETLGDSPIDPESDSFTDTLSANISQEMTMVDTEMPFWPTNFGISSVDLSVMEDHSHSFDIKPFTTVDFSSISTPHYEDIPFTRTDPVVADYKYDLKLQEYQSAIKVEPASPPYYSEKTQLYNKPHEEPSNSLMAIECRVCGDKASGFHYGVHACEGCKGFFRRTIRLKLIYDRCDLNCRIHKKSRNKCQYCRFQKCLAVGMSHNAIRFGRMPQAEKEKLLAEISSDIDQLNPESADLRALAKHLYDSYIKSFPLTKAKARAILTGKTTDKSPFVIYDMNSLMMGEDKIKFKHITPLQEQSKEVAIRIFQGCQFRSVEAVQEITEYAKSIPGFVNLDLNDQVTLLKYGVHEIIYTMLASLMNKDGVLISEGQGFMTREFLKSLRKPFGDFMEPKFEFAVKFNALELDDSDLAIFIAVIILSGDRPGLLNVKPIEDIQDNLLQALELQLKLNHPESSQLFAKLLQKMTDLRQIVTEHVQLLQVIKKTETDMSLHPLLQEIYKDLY", "test": "Transactivation activity at human PPARgamma expressed in african green monkey CV1 cells after 24 hrs by luciferase reporter gene assay", "type": "cell-based, CV-1"}, "Mus musculus [19]": {"test_system": "Mus musculus", "test": "Antiobesity activity in high-fat diet fed C57BL/6 mouse assessed as decrease in serum free fatty acid level at 10 mg/kg, po QD relative to vehicle-treated control", "type": "functional", "set-up": "scale not given: the % may be the effect or the level left"}, "Mus musculus [20]": {"test_system": "Mus musculus", "test": "Toxicity in high-fat diet fed C57BL/6 mouse assessed as decrease in food intake at 10 mg/kg, po QD relative to control", "type": "organism-based", "set-up": "dose 10 mg/kg, route oral", "conditions": "in vivo"}, "[21]": {"target": "T1, Peroxisome proliferator-activated receptor delta", "test": "Binding affinity at human GST-tagged PPARdelta ligand binding domain after 1 hr by time-resolved FRET analysis"}, "[22]": {"test": "Terminal half life in ICR mouse at 1 mg/kg, iv", "type": "ADME, organism-based", "set-up": "dose 1 mg/kg, route intravenous", "conditions": "in vivo, read-out: beta t1/2 (converted)"}, "[23]": {"test": "Oral bioavailability in ICR mouse at 10 mg/kg", "type": "ADME, organism-based", "conditions": "in vivo"}, "[24]": {"test": "AUC in ICR mouse at 10 mg/kg, po", "type": "ADME, organism-based", "set-up": "dose 10 mg/kg, route oral", "conditions": "plasma"}, "Mus musculus [25]": {"test_system": "Mus musculus", "test": "Volume of distribution at steady state in ICR mouse at 10 mg/kg, po", "type": "ADME, organism-based", "set-up": "dose 10 mg/kg, route oral", "conditions": "in vivo"}, "Mus musculus [26]": {"test_system": "Mus musculus", "test": "Antiobesity activity in high-fat diet fed C57BL/6 mouse assessed as decrease in serum triglyceride level at 10 mg/kg, po QD relative to vehicle-treated control", "type": "functional", "set-up": "scale not given: the % may be the effect or the level left"}, "[27]": {"test": "Mean residence time in ICR mouse at 1 mg/kg, iv", "type": "ADME, organism-based", "set-up": "dose 1 mg/kg, route intravenous", "conditions": "in vivo"}, "[28]": {"test": "Tmax in ICR mouse at 1 mg/kg, iv", "type": "ADME, organism-based", "set-up": "dose 1 mg/kg, route intravenous", "conditions": "in vivo"}, "Mus musculus [29]": {"test_system": "Mus musculus", "test": "Antiobesity activity in high-fat diet fed C57BL/6 mouse assessed as absence of fatty liver at 10 mg/kg, po QD hematoxylin and eosin staining-based histological analysis", "type": "functional, organism-based", "set-up": "dose 10 mg/kg"}, "[30]": {"test": "Volume of distribution at steady state in ICR mouse at 1 mg/kg, iv", "type": "ADME, organism-based", "set-up": "dose 1 mg/kg, route intravenous", "conditions": "in vivo, read-out: Vdss"}}, "note": "Calls of active or inactive are those of the source. The calls are words filed in the database; no cut-off is given here."}
{"smiles": "Cc1cc(SC(Cc2ccccc2)c2sc(-c3ccc(C(F)(F)F)cc3)nc2C)ccc1OCC(=O)O", "note": "(stereo unspecified)", "values": [{"measurement": "Activity", "setting": "Mus musculus [1]", "result": "Active"}, {"measurement": "AUC/dose", "setting": "Mus musculus [2]", "result": 40.6, "unit": "kg·µg·h/mL/mg"}, {"measurement": "Cmax", "setting": "[3]", "result": 8980, "unit": "ng/mL"}, {"measurement": "Activity", "setting": "Mus musculus [4]", "result": "Active"}, {"measurement": "MRT", "setting": "[5]", "result": 9.32, "unit": "h"}, {"measurement": "Cmax", "setting": "[6]", "result": 37900, "unit": "ng/mL"}, {"measurement": "EC50", "setting": "[7]", "result": 0.0016, "unit": "µM"}, {"measurement": "EC50", "setting": "[8]", "result": "> 10", "unit": "µM"}, {"measurement": "Activity", "setting": "Mus musculus [9]", "result": 60, "unit": "%"}, {"measurement": "Tmax", "setting": "[10]", "result": 2.75, "unit": "h"}, {"measurement": "half-life", "setting": "[11]", "result": 5.27, "unit": "h"}, {"measurement": "AUC/dose", "setting": "Mus musculus [12]", "result": 35.7, "unit": "kg·µg·h/mL/mg"}, {"measurement": "CL/F", "setting": "[13]", "result": 0.47, "unit": "mL/min/kg"}, {"measurement": "AUMC", "setting": "Mus musculus [14]", "result": 3340, "unit": "hr.hr.ug/ml"}, {"measurement": "AUMC", "setting": "Mus musculus [15]", "result": 243, "unit": "hr.hr.ug/ml"}, {"measurement": "clearance", "setting": "[16]", "result": 0.41, "unit": "mL/min/kg"}, {"measurement": "AUC", "setting": "[17]", "result": 40.6, "unit": "µg·h/mL"}, {"measurement": "Ratio EC50", "setting": "Homo sapiens", "result": 10000}, {"measurement": "EC50", "setting": "[18]", "result": "> 10", "unit": "µM"}, {"measurement": "Activity", "setting": "Mus musculus [19]", "result": 26, "unit": "%"}, {"measurement": "Activity", "setting": "Mus musculus [20]", "result": "Non-toxic"}, {"measurement": "EC50", "setting": "[21]", "result": 0.013, "unit": "µM"}, {"measurement": "half-life", "setting": "[22]", "result": 3.69, "unit": "h"}, {"measurement": "bioavailability", "setting": "[23]", "result": 88, "unit": "%"}, {"measurement": "AUC", "setting": "[24]", "result": 357, "unit": "µg·h/mL"}, {"measurement": "Vdss", "setting": "Mus musculus [25]", "result": 0.212, "unit": "L/kg"}, {"measurement": "Activity", "setting": "Mus musculus [26]", "result": 29, "unit": "%"}, {"measurement": "MRT", "setting": "[27]", "result": 5.98, "unit": "h"}, {"measurement": "Tmax", "setting": "[28]", "result": 0.33, "unit": "h"}, {"measurement": "Activity", "setting": "Mus musculus [29]", "result": "Active"}, {"measurement": "Vd", "setting": "[30]", "result": 0.131, "unit": "L/kg"}]}
